Columns and labels:
[1] = tested on: barnyardgrass; test: Test A pre-/postemergence greenhouse test; assay type: in vivo, Echinochloa crus-galli; conditions: for Barnyardgrass plant response rating: 0 to 100 scale; for Plant response rating, Barnyardgrass: 0 to 100 scale where 0 is no effect and 100 is complete control
How it was run: (§1)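 Planting was into mixed loam soil and sand; preemergence treatment followed as a directed soil spray. Concurrently, emerged plants (one- to two-leaf, 2–10 cm) received postemergence applications of identically formulated compound (non-phytotoxic solvent, surfactant). After approximately ten days under greenhouse conditions, injury was judged by eye against untreated plants.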

[2] = tested on: crabgrass; test: Test A pre-/postemergence greenhouse test; assay type: in vivo, Digitaria sanguinalis; conditions: for Crabgrass, Large plant response rating: 0 to 100 scale; for Plant response rating, Crabgrass, Large: 0 to 100 scale where 0 is no effect and 100 is complete control
How it was run: as §1

[3] = tested on: giant foxtail; test: Test A pre-/postemergence greenhouse test; assay type: in vivo, Setaria faberi; conditions: for Foxtail, Giant plant response rating: 0 to 100 scale; for Plant response rating, Foxtail, Giant: 0 to 100 scale where 0 is no effect and 100 is complete control
How it was run: as §1

[4] = tested on: velvetleaf; test: Test A pre-/postemergence greenhouse test; assay type: in vivo, Abutilon theophrasti; conditions: for Velvetleaf plant response rating: 0 to 100 scale; for Plant response rating, Velvetleaf: 0 to 100 scale where 0 is no effect and 100 is complete control
How it was run: as §1

[5] = tested on: blackgrass; test: Test C pre-/postemergence test; assay type: in vivo, Alopecurus myosuroides; conditions: for Plant response rating, Blackgrass: 31 g ai/ha, scale 0 to 100 (0 no effect, 100 complete control); for Plant response rating (0 to 100), Blackgrass: 250 g ai/ha
How it was run: (§2)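 Compounds in a non-phytotoxic solvent with surfactant applied preemergence to seeded pots and, at the same time, postemergence to plants 2–18 cm tall (1- to 4-leaf stage). Paddy tests: pots flooded to 3 cm, compound applied into the water, depth held throughout.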

[6] = tested on: downy brome; test: Test C pre-/postemergence test; assay type: in vivo, Bromus tectorum; conditions: for Plant response rating, Bromegrass, Downy: 31 g ai/ha, scale 0 to 100 (0 no effect, 100 complete control); for Plant response rating (0 to 100), Bromegrass, Downy: 250 g ai/ha
How it was run: as §2

[7] = tested on: green foxtail; test: Test C pre-/postemergence test; assay type: in vivo, Setaria viridis; conditions: Preemergence; for Foxtail, Green plant response rating: 62 g ai/ha, scale 0 to 100; for Plant response rating, Foxtail, Green: 31 g ai/ha, scale 0 to 100 (0 no effect, 100 complete control); for Plant response rating (0 to 100), Foxtail, Green: 250 g ai/ha
How it was run: as §2

[8] = tested on: catchweed bedstraw; test: Test C pre-/postemergence test; assay type: in vivo, Galium aparine; conditions: Preemergence; for Galium plant response rating: 62 g ai/ha, scale 0 to 100; for Plant response rating, Galium: 31 g ai/ha, scale 0 to 100 (0 no effect, 100 complete control); for Plant response rating (0 to 100), Galium: 250 g ai/ha
How it was run: as §2

[9] = tested on: Surinam grass; test: Test C pre-/postemergence test; assay type: in vivo, Brachiaria decumbens; conditions: Preemergence; for Surinam Grass plant response rating: 62 g ai/ha, scale 0 to 100; for Plant response rating, Surinam Grass: 31 g ai/ha, scale 0 to 100 (0 no effect, 100 complete control)
How it was run: as §2

[10] = tested on: woolly cupgrass; test: Test C pre-/postemergence test; assay type: in vivo, Eriochloa villosa; conditions: Preemergence; for Cupgrass, Woolly plant response rating: 62 g ai/ha, scale 0 to 100; for Plant response rating, Cupgrass, Woolly: 31 g ai/ha, scale 0 to 100 (0 no effect, 100 complete control); for Plant response rating (0 to 100), Cupgrass, Woolly: 250 g ai/ha
How it was run: as §2

[11] = tested on: lambsquarters; test: Test C pre-/postemergence test; assay type: in vivo, Chenopodium album; conditions: Preemergence; for Lambsquarters plant response rating: 62 g ai/ha, scale 0 to 100; for Plant response rating, Lambsquarters: 31 g ai/ha, scale 0 to 100 (0 no effect, 100 complete control)
How it was run: as §2

[12] = tested on: pigweed; test: Test C pre-/postemergence test; assay type: in vivo, Amaranthus retroflexus; conditions: Preemergence; for Pigweed plant response rating: 62 g ai/ha, scale 0 to 100; for Plant response rating, Pigweed: 31 g ai/ha, scale 0 to 100 (0 no effect, 100 complete control)
How it was run: as §2

[13] = tested on: common ragweed; test: Test C pre-/postemergence test; assay type: in vivo, Ambrosia elation; conditions: Preemergence; for Ragweed plant response rating: 62 g ai/ha, scale 0 to 100; for Plant response rating, Ragweed: 31 g ai/ha, scale 0 to 100 (0 no effect, 100 complete control)
How it was run: as §2

[14] = tested on: soybean; test: Test C pre-/postemergence test; assay type: in vivo, Glycine max; conditions: Preemergence; for Soybean plant response rating: 62 g ai/ha, scale 0 to 100
How it was run: as §2

[15] = tested on: velvetleaf; test: Test C pre-/postemergence test; assay type: in vivo, Abutilon theophrasti; conditions: Preemergence; for Velvetleaf plant response rating: 62 g ai/ha, scale 0 to 100; for Plant response rating, Velvetleaf: 31 g ai/ha, scale 0 to 100 (0 no effect, 100 complete control)
How it was run: as §2

[16] = tested on: duck salad; test: Test C flooded paddy test; assay type: in vivo, Heteranthera limosa; conditions: Flood
How it was run: (§3)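 Test compounds are applied straight into paddy water held 3 cm above the soil surface, with that flood maintained for the whole test. After 13 to 15 days in the greenhouse, each species is scored visually relative to controls.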

[17] = tested on: barnyardgrass; test: Test C flooded paddy test; assay type: in vivo, Echinochloa crus-galli; conditions: Flood
How it was run: as §3

[18] = Postemergence, 125 g ai/ha, 0 is no effect, 100 is complete control
[19] = Postemergence, 500 g ai/ha, 0 is no effect, 100 is complete control
[20] = Preemergence, 125 g ai/ha, 0 no effect, 100 complete control
[21] = 62 g ai/ha, Preemergence, scale 0 to 100
[22] = preemergence, 125 g ai/ha, scale 0 (no effect) to 100 (complete control)
[23] = 31 g ai/ha, scale 0 to 100 (0 no effect, 100 complete control)
[24] = 62 g ai/ha, scale 0 to 100, 0 no effect, 100 complete control, 13 to 15 days
[25] = 125 g ai/ha, scale 0 to 100, 0 no effect, 100 complete control, 13 to 15 days
[26] = 250 g ai/ha, scale 0 to 100 (0 no effect, 100 complete control)

## CC(c1c(C(F)(F)F)nn(C)c1OC(F)F)S(=O)(=O)c1cc(C(C)(C)C)cc[n+]1[O-] (racemic) [Compound 26]
[1]; [18]
  Barnyardgrass plant response rating: 0
[1]; [19]
  Barnyardgrass plant response rating: 0
[1]; [20]
  Barnyardgrass plant response rating: 60
[1]; Preemergence, 500 g ai/ha
  Plant response rating, Barnyardgrass: 90
[2]; [18]
  Crabgrass, Large plant response rating: 20
[2]; [19]
  Crabgrass, Large plant response rating: 40
[2]; [20]
  Crabgrass, Large plant response rating: 90
[2]; Preemergence, 500 g ai/ha
  Plant response rating, Crabgrass, Large: 100
[3]; [18]
  Foxtail, Giant plant response rating: 0
[3]; [19]
  Foxtail, Giant plant response rating: 30
[3]; [20]
  Foxtail, Giant plant response rating: 90
[3]; Preemergence, 500 g ai/ha
  Plant response rating, Foxtail, Giant: 100
[4]; [18]
  Velvetleaf plant response rating: 0
[4]; [19]
  Velvetleaf plant response rating: 0
[4]; [20]
  Velvetleaf plant response rating: 0
[4]; Preemergence, 500 g ai/ha
  Plant response rating, Velvetleaf: 70
[5]; [21]
  Blackgrass plant response rating: 100
[5]; Preemergence
  Plant response rating, Blackgrass: 80
  Plant response rating (0 to 100), Blackgrass: 100
[5]; [22]
  Blackgrass plant response rating: 100
[6]; [21]
  Bromegrass, Downy plant response rating: 45
[6]; Preemergence
  Plant response rating, Bromegrass, Downy: 0
  Plant response rating (0 to 100), Bromegrass, Downy: 60
[6]; [22]
  Bromegrass, Downy plant response rating: 45
[7]
  Foxtail, Green plant response rating: 85
  Plant response rating, Foxtail, Green: 10
  Plant response rating (0 to 100), Foxtail, Green: 100
[8]
  Galium plant response rating: 85
  Plant response rating, Galium: 50
  Plant response rating (0 to 100), Galium: 100
[9]
  Surinam Grass plant response rating: 40
  Plant response rating, Surinam Grass: 10
[10]
  Cupgrass, Woolly plant response rating: 40
  Plant response rating, Cupgrass, Woolly: 40
  Plant response rating (0 to 100), Cupgrass, Woolly: 98
[11]
  Lambsquarters plant response rating: 40
  Plant response rating, Lambsquarters: 0
[12]
  Pigweed plant response rating: 100
  Plant response rating, Pigweed: 85
[13]
  Ragweed plant response rating: 20
  Plant response rating, Ragweed: 0
[14]
  Soybean plant response rating: 0
[14]; [23]
  Plant response rating, Soybean: 0
[15]
  Velvetleaf plant response rating: 80
  Plant response rating, Velvetleaf: 30
[16]; [23]
  Plant response rating, Ducksalad: 40
[16]; [24]
  Plant response rating, Ducksalad: 65
[16]; [25]
  Plant response rating, Ducksalad: 65
[16]; [26]
  Plant response rating, Ducksalad: 90
[17]; [23]
  Plant response rating, Barnyardgrass: 0
[17]; [24]
  Plant response rating, Barnyardgrass: 0
[17]; [25]
  Plant response rating, Barnyardgrass: 20
[17]; [26]
  Plant response rating, Barnyardgrass: 80

## Cn1nc(C(F)(F)F)c(C[S+]([O-])c2cccc[n+]2[O-])c1OCC(F)(F)F (racemic) [Compound 28]
[1]; [18]
  Barnyardgrass plant response rating: 80
[1]; [19]
  Barnyardgrass plant response rating: 90
[1]; [20]
  Barnyardgrass plant response rating: 90
[1]; Preemergence, 500 g ai/ha
  Plant response rating, Barnyardgrass: 100
[2]; [18]
  Crabgrass, Large plant response rating: 80
[2]; [19]
  Crabgrass, Large plant response rating: 90
[2]; [20]
  Crabgrass, Large plant response rating: 100
[2]; Preemergence, 500 g ai/ha
  Plant response rating, Crabgrass, Large: 100
[3]; [18]
  Foxtail, Giant plant response rating: 90
[3]; [19]
  Foxtail, Giant plant response rating: 90
[3]; [20]
  Foxtail, Giant plant response rating: 100
[3]; Preemergence, 500 g ai/ha
  Plant response rating, Foxtail, Giant: 100
[4]; [18]
  Velvetleaf plant response rating: 70
[4]; [19]
  Velvetleaf plant response rating: 80
[4]; [20]
  Velvetleaf plant response rating: 80
[4]; Preemergence, 500 g ai/ha
  Plant response rating, Velvetleaf: 100
[5]; [21]
  Blackgrass plant response rating: 100
[5]; Preemergence
  Plant response rating, Blackgrass: 100
  Plant response rating (0 to 100), Blackgrass: 100
[5]; [22]
  Blackgrass plant response rating: 100
[6]; [21]
  Bromegrass, Downy plant response rating: 40
[6]; Preemergence
  Plant response rating, Bromegrass, Downy: 0
  Plant response rating (0 to 100), Bromegrass, Downy: 100
[6]; [22]
  Bromegrass, Downy plant response rating: 50
[7]
  Foxtail, Green plant response rating: 100
  Plant response rating, Foxtail, Green: 100
  Plant response rating (0 to 100), Foxtail, Green: 100
[8]
  Galium plant response rating: 100
  Plant response rating, Galium: 100
  Plant response rating (0 to 100), Galium: 100
[9]
  Surinam Grass plant response rating: 100
  Plant response rating, Surinam Grass: 85
[10]
  Cupgrass, Woolly plant response rating: 100
  Plant response rating, Cupgrass, Woolly: 70
  Plant response rating (0 to 100), Cupgrass, Woolly: 100
[11]
  Lambsquarters plant response rating: 100
  Plant response rating, Lambsquarters: 100
[12]
  Pigweed plant response rating: 100
  Plant response rating, Pigweed: 100
[13]
  Ragweed plant response rating: 85
  Plant response rating, Ragweed: 65
[14]
  Soybean plant response rating: 95
[15]
  Velvetleaf plant response rating: 100
  Plant response rating, Velvetleaf: 80
[16]; [23]
  Plant response rating, Ducksalad: 65
[16]; [24]
  Plant response rating, Ducksalad: 80
[16]; [25]
  Plant response rating, Ducksalad: 95
[16]; [26]
  Plant response rating, Ducksalad: 95
[17]; [23]
  Plant response rating, Barnyardgrass: 0
[17]; [24]
  Plant response rating, Barnyardgrass: 20
[17]; [25]
  Plant response rating, Barnyardgrass: 65
[17]; [26]
  Plant response rating, Barnyardgrass: 85
